According to patent publication US11344601B2, “Tumor microenvironment-related target TAK1 and application thereof in inhibition of tumor” (Shanghai Institutes for Biological Sciences, Chinese …, priority 2017, dated 2022):

Tested on: prostate-derived stromal cell line PSC27 and epithelial cancer cell line PC3 xenograft tumors
Assay: Preclinical chemotherapy trial, subcutaneous PC3/PSC27 tissue-recombinant tumors, terminal tumor volume
Assay type: in vivo, ICR-SCID mice
Experimental: All experimental mouse experiments were carried out in strict accordance with the relevant regulations of the Institutional animal care and use committee (IACUC) of the shanghai Institute of Life Sciences of the Chinese Academy of Sciences. ICR-SCID mice at an age of about 6 weeks (about 25 g in body weight) were used in this patent-related animal experiment. Stromal cells PSC27 and epithelial cells were mixed at a ratio of 1:4, with each implant containing 1.25×10^6 cells for tissue recombination. The transplant tumor was implanted into mice subcutaneously, and the animals were euthanized at the end of Week 8 after transplantation. The tumor volume was calculated according to the following formula: V=(π/6)×((l+w)/2)^3 (V, volume; l, length; w, width). Similarly, lung and breast cancer xenograft tumors were formed by tissue recombination with A549 (non-small cell lung cancer cell line) and W138 (lung fibroblast line), MDA-MB-231 (triple negative breast cancer cell line) and HBF1203 (breast fibroblast line), respectively.
In the preclinical chemotherapy trial, mice subcutaneously transplanted with tumors were fed standard experimental diet. After 2 weeks, the chemotherapeutics mitoxantrone (dose of 0.2 mg/kg) and/or SASP inhibitors (500 μl, dose of 10 mg/kg, RAD001, SB203580 and 5Z-7 were purchased from Tocris; LYTAK, purchased from Lilly Co ((Indianapolis, Ind.), 5 mg/kg) were administrated intraperitoneally. The timepoint was the first day of Week 3, 5, 7, and the whole course of treatment was composed of three cycles of administration, each cycle lasted for 2 weeks. After the course of treatment, mouse […] was collected for tumor measurement and histological analysis. Each mouse received cumulatively 0.6 mg mitoxantrone/kg body weight and 30 mg SASP inhibitor/kg body (15 mg/kg body weight for LYTAK1). Mice xenografted with lung cancer and breast cancer tumor received bleomycin (totally 0.3 mg/kg) and doxorubicin (totally 0.2 mg/kg), respectively. The timepoints and frequency were same as the administration of mitoxantrone. The chemotherapeutic trial was performed until the end of Week 8, and the mice were dissected immediately after death. The transplant tumors were collected and used for analysis in a pathological system.
In order to simulate clinical conditions as much as possible, the present inventor inoculated the subcutaneous site of immunodeficient mice with an admixture of prostate-derived stromal cell line PSC27 and epithelial cancer cell line PC3. The mice subsequently underwent a regimen of 8-week preclinical chemotherapy, which included three single- or double-drug treatments based on a series of pre-experimental data (FIGS. 64 and 65). In the absence of stromal cells, PC3 cells were still able to form tumors under screening pressure caused by chemotherapeutics, though their volumes were smaller than that generated in the case of concurrent inoculation of stromal cells and cancer cells. Such difference also objectively confirmed the tumor-promoting effect of the microenvironment (FIG. 66).

SMILES: COc1cc(O)c2c(c1)/C=C/C[C@H](O)[C@H](O)C(=O)/C=C\C[C@H](C)OC2=O [5Z-7, 5z-7-oxozeaenol]
- effect on tumor growth (TAK1 inhibitor alone): does not appear to alter tumor growth trends
- further decrease in terminal tumor volume (inhibitor combined with mitoxantrone (MIT) vs mitoxantrone alone (group 8 vs group 6), end of Week 8): 60%
